In article PMC2947195 (Biochemical Journal, 2010):
Numbering of substitutions follows the chain as printed. Read-outs that look alike come from different tables or passages of the source.

Columns and labels:
Assay in all cases: Competitive inhibition of [3H]MTX uptake
Type in all cases: cell-based
S313A hRFC = target: T1, S313A hRFC (Homo sapiens, UniProt P41440, S313A)
T1 sequence (P41440 1-591 S313A): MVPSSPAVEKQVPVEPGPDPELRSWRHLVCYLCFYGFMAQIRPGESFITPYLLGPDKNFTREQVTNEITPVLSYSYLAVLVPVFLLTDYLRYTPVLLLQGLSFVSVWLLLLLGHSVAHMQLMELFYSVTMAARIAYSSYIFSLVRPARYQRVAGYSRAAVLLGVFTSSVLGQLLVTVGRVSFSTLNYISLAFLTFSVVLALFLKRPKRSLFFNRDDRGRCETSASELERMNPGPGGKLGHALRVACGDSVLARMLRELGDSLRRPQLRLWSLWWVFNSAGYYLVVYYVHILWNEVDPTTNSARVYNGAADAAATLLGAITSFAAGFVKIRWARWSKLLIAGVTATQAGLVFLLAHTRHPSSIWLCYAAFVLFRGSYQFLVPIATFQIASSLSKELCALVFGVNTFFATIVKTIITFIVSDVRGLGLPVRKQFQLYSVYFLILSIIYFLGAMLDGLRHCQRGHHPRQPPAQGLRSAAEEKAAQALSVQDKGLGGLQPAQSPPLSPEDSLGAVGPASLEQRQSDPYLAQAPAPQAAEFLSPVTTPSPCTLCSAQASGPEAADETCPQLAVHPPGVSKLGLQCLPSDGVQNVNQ

S313T hRFC = target: T2, S313T hRFC (Homo sapiens, UniProt P41440, S313T); conditions: for decrease of Ki compared with wt hRFC: S313T hRFC versus wt hRFC
T2 sequence (P41440 1-591 S313T): T1 sequence (P41440 1-591 S313A) with A313T

wt hRFC = target: T3, wt hRFC (Homo sapiens, UniProt P41440)
T3 sequence (P41440 1-591): T1 sequence (P41440 1-591 S313A) with A313S

Row | Compound | Ki (S313A hRFC) [µM] | decrease of Ki compared with wt hRFC (S313A hRFC; S313A hRFC versus wt hRFC) | Ki (S313T hRFC) [µM] | decrease of Ki compared with wt hRFC (S313T hRFC) | Ki (wt hRFC) [µM] | increase of Ki compared with wt carrier (S313A hRFC; S313A hRFC versus wt hRFC) | Ki (S313A hRFC; S313A hRFC, inhibition of [3H]MTX (1 μM) uptake, Dixon plots, mean±S.E.M., n=3) [µM] | Ki (S313T hRFC; S313T hRFC, inhibition of [3H]MTX (1 μM) uptake, Dixon plots, mean±S.E.M., n=3) [µM] | Ki (wt hRFC; wt hRFC, inhibition of [3H]MTX (1 μM) uptake, Dixon plots, mean±S.E.M., n=3) [µM]
1 | Nc1nc(N)c2nc(CNc3ccc(C(=O)N[C@@H](CCC(=O)O)C(=O)O)cc3)cnc2n1 [Aminopterin, aminopterin] | 3.43 ± 0.58 | 2–3 fold | 2.75 ± 0.15 | 2–3 fold | 7.03 ± 0.02 |  |  |  | 
2 | CCC(Cc1cnc2nc(N)nc(N)c2n1)c1ccc(C(=O)N[C@@H](CCC(=O)O)C(=O)O)cc1 (stereo partly drawn) [Edatrexate, 10-ethyl-10-deazaaminopterin] | 4.25 ± 0.53 |  | 2.23 ± 0.38 |  | 5.48 ± 1.1 |  |  |  | 
3 | Nc1nc(=O)c2nc(CNc3ccc(C(=O)N[C@@H](CCC(=O)O)C(=O)O)cc3)cnc2[nH]1 [Folic acid, folic acid] | 435 ± 82.7 |  | 237 ± 58.4 |  | 194 ± 5.45 | ~ 2 fold |  |  | 
4 | C#CCN(Cc1cc2c(=O)[nH]c(C)nc2cc1C)c1ccc(C(=O)N[C@@H](CCc2nnn[nH]2)C(=O)O)c(F)c1 [ZD9331, (2S)-2-{O-fluoro-p-[N-(2,7dimethyl-4-oxo-3,4-dihydro-quinazolin-6-ylmethyl)-N-(prop-2ynyl)amino]benzamido}-4-(tetrazol-5-yl)-butyric acid] | 2.96 ± 0.52 |  | 2.31 ± 0.18 |  | 4.42 ± 0.93 |  |  |  | 

More lines, now with the values ahead:

Row | Ki (S313A hRFC) [µM] | decrease of Ki compared with wt hRFC (S313A hRFC; S313A hRFC versus wt hRFC) | Ki (S313T hRFC) [µM] | decrease of Ki compared with wt hRFC (S313T hRFC) | Ki (wt hRFC) [µM] | increase of Ki compared with wt carrier (S313A hRFC; S313A hRFC versus wt hRFC) | Ki (S313A hRFC; S313A hRFC, inhibition of [3H]MTX (1 μM) uptake, Dixon plots, mean±S.E.M., n=3) [µM] | Ki (S313T hRFC; S313T hRFC, inhibition of [3H]MTX (1 μM) uptake, Dixon plots, mean±S.E.M., n=3) [µM] | Ki (wt hRFC; wt hRFC, inhibition of [3H]MTX (1 μM) uptake, Dixon plots, mean±S.E.M., n=3) [µM] | Compound
5 | 2.61 ± 0.5 |  | 0.75 ± 0.06 | 2–3 fold | 2.1 ± 0.01 |  |  |  |  | Cc1nc2ccc3ccc(CNc4ccc5c(c4)CN([C@@H](CCC(=O)O)C(=O)O)C5=O)cc3c2c(=O)[nH]1 [GW1843U89, (S)-2-[5-({[1,2-dihydro-3-methyl-1-oxo-benzo(f)quinazolin-9-yl]methyl}amino)1-oxo-2-isoindolinyl] glutaric acid]
6 | 12.3 ± 0.88 | 2–3 fold | 7.74 ± 0.66 | 2–3 fold | 18.7 ± 1.54 |  |  |  |  | Nc1nc2c(c(=O)[nH]1)N(C=O)C(CNc1ccc(C(=O)N[C@@H](CCC(=O)O)C(=O)O)cc1)CN2 (stereo partly drawn) [Leucovorin, (6R,S)-5-formyl tetrahydrofolate]
7 |  |  |  |  |  |  | 3.13 ± 0.17 | 2.86 ± 0.85 | 4.56 ± 0.97 | Nc1nc(N)c2nc(CNc3ccc(C(=O)N[C@@H](CCCNC(=O)c4ccccc4C(=O)O)C(=O)O)cc3)cnc2n1 [PT523, N^α-(4-amino-4-deoxypteroyl)-N^δ-hemiphthaloyl-L-ornithine]
8 |  | 2–3 fold |  | 2–3 fold |  |  |  |  |  | Nc1nc2[nH]cc(CCc3ccc(C(=O)N[C@@H](CCC(=O)O)C(=O)O)cc3)c2c(=O)[nH]1 [Pemetrexed, N-{4-[2(2-amino-3,4-dihydro-4-oxo-7H-pyrrolo[2,3-d]pyrimidin-5-yl)ethyl]benzoyl}-L-glutamic acid]
9 |  |  |  | 2–3 fold |  |  |  |  |  | Cc1nc2ccc(CN(C)c3ccc(C(=O)N[C@@H](CCC(=O)O)C(=O)O)s3)cc2c(=O)[nH]1 [Raltitrexed, N-{5-[N-(3,4-dihydro-2methyl-4-oxyquinazolin-6-ylmethyl)-N-methyl-amino]-2-thienoyl}-L-glutamic acid]
